# Source: patent US12071404B2, “Aza (indole)-, benzothiophene-, and benzofuran-3-sulfonamides” (UCB Pharma GmbH, priority 2016, dated 2024)
# Columns and labels:
# GPR17 [1] = biological target: T1, GPR17 (Homo sapiens, UniProt Q13304); test: Calcium mobilization functional assay (GPR17 Ca2+ assay); format: cell-based; design: host or cells: Flp-In T-REx CHO; conditions: CHO hGPR17 cells, inhibition of 50 nM MDL29,951, Calcium 5 dye, FLIPR; read-out: Ca2+ assay pIC50 (converted)
# Summary of the method: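 pIC50 values were fitted with a 4-parameter logistic curve. They reflect test-compound inhibition of cytosolic Ca2+ release evoked by 50 nM MDL29,951, tracked as Calcium 5 fluorescence at room temperature. Cells were CHO Flp-In T-REx stably carrying human GPR17, induced with doxycycline 1 μg/mL for 16-20 h.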
# GPR17 [2] = biological target: T1, GPR17; test: cAMP accumulation functional assay (HTRF, Schild analysis); format: cell-based; design: host or cells: Flp-In T-REx CHO; conditions: CHO hGPR17 cells, Schild analysis vs MDL29,951, 5 μM forskolin, read-out: cAMP assay pA2 (converted)
# Summary of the method: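 Antagonist affinity (pA2) came from Schild plots of dose ratios, based on MDL29,951 concentration-response curves fitted by 4-parameter logistic. The read-out was HTRF cAMP in 5,000 doxycycline-induced CHO hGPR17 cells per well, with 30 min compound preincubation and 60 min stimulation, at room temperature in pH 7.4 buffer.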
# T1 sequence (Q13304 whole entry): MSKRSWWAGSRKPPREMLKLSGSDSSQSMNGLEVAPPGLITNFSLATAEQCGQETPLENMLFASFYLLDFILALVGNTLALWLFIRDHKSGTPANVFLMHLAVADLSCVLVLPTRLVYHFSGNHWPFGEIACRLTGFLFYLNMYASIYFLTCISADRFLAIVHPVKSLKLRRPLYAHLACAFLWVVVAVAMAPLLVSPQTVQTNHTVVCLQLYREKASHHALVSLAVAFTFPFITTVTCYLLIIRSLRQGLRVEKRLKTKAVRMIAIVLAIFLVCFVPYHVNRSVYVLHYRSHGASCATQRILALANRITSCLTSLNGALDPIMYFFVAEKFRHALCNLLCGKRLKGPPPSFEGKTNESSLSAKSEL
IC50 (GPR17 [1]),Kb (GPR17 [2]),SMILES
< 3.16 nM,< 3.16 nM,"N#Cc1cc(F)c(NS(=O)(=O)c2c[nH]c3c2ccc2ccccc23)cc1F [Compound I-151, N-(4-cyano-2,5-difluorophenyl)-1H-benzo[g]indole-3-sulfonamide]"
3.16 to 31.6 nM,3.16 to 31.6 nM,"O=S(=O)(Nc1ccc(S(F)(F)(F)(F)F)cc1F)c1c[nH]c2cc(Cl)ccc12 [Compound I-215, 6-chloro-N-[2-fluoro-4-(pentafluoro-lambda-6-sulfanyl)phenyl]-1H-indole-3-sulfonamide]"
< 3.16 nM,< 3.16 nM,"O=S(=O)(Nc1cc(F)c(C(F)(F)F)cc1F)c1c[nH]c2cc(Cl)ccc12 [Compound I-269, 6-chloro-N-[2,5-difluoro-4-(trifluoromethyl)phenyl]-1H-indole-3-sulfonamide]"
< 3.16 nM,< 3.16 nM,"N#Cc1ccc(NS(=O)(=O)c2c[nH]c3cc(C(F)(F)F)ccc23)c(F)c1 [Compound I-189, N-(4-cyano-2-fluorophenyl)-6-(trifluoromethyl)-1H-indole-3-sulfonamide]"
3.16 to 31.6 nM,3.16 to 31.6 nM,"C#Cc1ccc(NS(=O)(=O)c2c[nH]c3cc(OC)ccc23)c(F)c1 [Compound I-274, N-(4-ethynyl-2-fluorophenyl)-6-methoxy-1H-indole-3-sulfonamide]"
< 3.16 nM,< 3.16 nM,"O=S(=O)(Nc1nc(F)c(Cl)cc1F)c1c[nH]c2c1ccc1ccccc12 [Compound I-304, N-(5-chloro-3,6-difluoropyridin-2-yl)-1H-benzo[g]indole-3-sulfonamide]"
> 31.6 nM,3.16 to 31.6 nM,"O=S(=O)(Nc1cccc2c1OC(F)(F)O2)c1c[nH]c2nc(Cl)ccc12 [Compound I-100, 6-chloro-N-(2,2-difluoro-1,3-benzodioxol-4-yl)-1H-pyrrolo[2,3-b]pyridine-3-sulfonamide]"
3.16 to 31.6 nM,3.16 to 31.6 nM,"O=S(=O)(Nc1ccc(I)cn1)c1c[nH]c2cc(Cl)ccc12 [Compound I-280, 6-chloro-N-(5-iodopyridin-2-yl)-1H-indole-3-sulfonamide]"
3.16 to 31.6 nM,> 31.6 nM,"O=C1NCc2cc(F)c(NS(=O)(=O)c3c[nH]c4cc(Cl)ccc34)cc21 [Compound I-265, 6-chloro-N-(6-fluoro-3-oxo-2,3-dihydro-1H-isoindol-5-yl)-1H-indole-3-sulfonamide]"
> 31.6 nM,> 31.6 nM,"COc1cnc(NS(=O)(=O)c2c[nH]c3cc(Cl)ccc23)c(OC)c1 [Compound I-264, 6-chloro-N-(3,5-dimethoxypyridin-2-yl)-1H-indole-3-sulfonamide]"
3.16 to 31.6 nM,3.16 to 31.6 nM,"Cc1ccc2c(S(=O)(=O)Nc3ccc(Cl)cc3F)c[nH]c2c1 [Compound I-174, N-(4-chloro-2-fluorophenyl)-6-methyl-1H-indole-3-sulfonamide]"
> 31.6 nM,3.16 to 31.6 nM,"O=S(=O)(Nc1ccc(I)cc1F)c1c[nH]c2cc3c(cc12)OCO3 [Compound I-44, N-(2-fluoro-4-iodophenyl)-5H-[1,3]dioxolo[4,5-f]indole-7-sulfonamide]"
3.16 to 31.6 nM,3.16 to 31.6 nM,"N#Cc1ccc(NS(=O)(=O)c2csc3cc(Cl)ccc23)cc1 [Compound I-311, 6-chloro-N-(4-cyanophenyl)-1-benzothiophene-3-sulfonamide]"
< 3.16 nM,< 3.16 nM,"O=S(=O)(Nc1ccc(I)cc1F)c1c[nH]c2cc(Cl)ccc12 [Compound I-140, 6-chloro-N-(2-fluoro-4-iodophenyl)-1H-indole-3-sulfonamide]"
< 3.16 nM,< 3.16 nM,"O=S(=O)(Nc1nc(F)c(Br)cc1F)c1c[nH]c2cc(Cl)ccc12 [Compound I-245, N-(5-bromo-3,6-difluoropyridin-2-yl)-6-chloro-1H-indole-3-sulfonamide]"
< 3.16 nM,< 3.16 nM,"COc1nc(NS(=O)(=O)c2c[nH]c3c(F)c(Cl)ccc23)c(F)cc1Cl [Compound I-319, 6-chloro-N-(5-chloro-3-fluoro-6-methoxypyridin-2-yl)-7-fluoro-1H-indole-3-sulfonamide]"
3.16 to 31.6 nM,3.16 to 31.6 nM,"COc1nc(NS(=O)(=O)c2c[nH]c3cc(N)ccc23)c(F)cc1CC#N [Compound I-352, 6-amino-N-[5-(cyanomethyl)-3-fluoro-6-methoxypyridin-2-yl]-1H-indole-3-sulfonamide]"
3.16 to 31.6 nM,3.16 to 31.6 nM,"O=S(=O)(Nc1cccc2nonc12)c1c[nH]c2c1ccc1cccnc12 [Compound I-119, N-(2,1,3-benzoxadiazol-4-yl)-1H-pyrrolo[3,2-h]quinoline-3-sulfonamide]"
< 3.16 nM,3.16 to 31.6 nM,"N#Cc1cc(F)c(NS(=O)(=O)c2c[nH]c3cc(Cl)ccc23)c(F)c1 [Compound I-182, 6-chloro-N-(4-cyano-2,6-difluorophenyl)-1H-indole-3-sulfonamide]"

IC50 (GPR17 [1]),Kb (GPR17 [2]),SMILES
< 3.16 nM,3.16 to 31.6 nM,"COc1ccc2c(S(=O)(=O)Nc3ccc(C(F)(F)F)cc3F)c[nH]c2c1 [Compound I-287, N-(2-fluoro-4-(trifluoromethyl)phenyl)-6-methoxy-1H-indole-3-sulfonamide]"
< 3.16 nM,< 3.16 nM,"Cc1cc(F)c(NS(=O)(=O)c2c[nH]c3nc(Cl)ccc23)cc1F [Compound I-268, 6-chloro-N-(2,5-difluoro-4-methylphenyl)-1H-pyrrolo[2,3-b]pyridine-3-sulfonamide]"
> 31.6 nM,3.16 to 31.6 nM,"COc1cc(Cl)c(F)cc1NS(=O)(=O)c1c[nH]c2cc(Cl)ccc12 [Compound I-208, 6-chloro-N-(4-chloro-5-fluoro-2-methoxyphenyl)-1H-indole-3-sulfonamide]"
3.16 to 31.6 nM,3.16 to 31.6 nM,"O=S(=O)(Nc1nc(F)ccc1F)c1c[nH]c2cc(Cl)ccc12 [Compound I-200, 6-chloro-N-(3,6-difluoropyridin-2-yl)-1H-indole-3-sulfonamide]"
< 3.16 nM,< 3.16 nM,"COCCCc1cc(F)c(NS(=O)(=O)c2c[nH]c3cc(Br)ccc23)nc1F [Compound I-323, 6-bromo-N-[3,6-difluoro-5-(3-methoxypropyl)pyridin-2-yl]-1H-indole-3-sulfonamide]"
< 3.16 nM,< 3.16 nM,"COc1cc(C#N)c(F)cc1NS(=O)(=O)c1c[nH]c2c1ccc1ccccc12 [Compound I-289, N-(4-cyano-5-fluoro-2-methoxyphenyl)-1H-benzo[g]indole-3-sulfonamide]"
3.16 to 31.6 nM,3.16 to 31.6 nM,"O=S(=O)(Nc1cc(F)c(F)cc1F)c1c[nH]c2c1ccc1cccnc12 [Compound I-67, N-(2,4,5-trifluorophenyl)-1H-pyrrolo[3,2-h]quinoline-3-sulfonamide]"
3.16 to 31.6 nM,< 3.16 nM,"O=S(=O)(Nc1cc(OC(F)F)c(Cl)cc1F)c1c[nH]c2cc(Cl)ccc12 [Compound I-195, 6-chloro-N-[4-chloro-5-(difluoromethoxy)-2-fluorophenyl]-1H-indole-3-sulfonamide]"
< 3.16 nM,< 3.16 nM,"O=S(=O)(Nc1cc(F)c(I)cc1F)c1c[nH]c2cc(Cl)ccc12 [Compound I-308, 6-chloro-N-(2,5-difluoro-4-iodophenyl)-1H-indole-3-sulfonamide]"
< 3.16 nM,< 3.16 nM,"O=S(=O)(Nc1cc(F)c(Cl)cc1F)c1c[nH]c2nc(Cl)ccc12 [Compound I-227, 6-chloro-N-(4-chloro-2,5-difluorophenyl)-1H-pyrrolo[2,3-b]pyridine-3-sulfonamide]"
3.16 to 31.6 nM,< 3.16 nM,"N#Cc1ccc(NS(=O)(=O)c2c[nH]c3c4c(ccc23)CCC4)c(F)c1 [Compound I-150, N-(4-cyano-2-fluorophenyl)-1,6,7,8-tetrahydrocyclopenta[g]indole-3-sulfonamide]"
< 3.16 nM,< 3.16 nM,"O=S(=O)(Nc1cc2nsnc2cc1F)c1c[nH]c2cc(Cl)ccc12 [Compound I-162, 6-chloro-N-(6-fluoro-2,1,3-benzothiadiazol-5-yl)-1H-indole-3-sulfonamide]"
3.16 to 31.6 nM,3.16 to 31.6 nM,"O=S(=O)(Nc1ccc(C(F)(F)F)cc1F)c1c[nH]c2nc(Cl)ccc12 [Compound I-296, 6-chloro-N-[2-fluoro-4-(trifluoromethyl)phenyl]-1H-pyrrolo[2,3-b]pyridine-3-sulfonamide]"
< 3.16 nM,3.16 to 31.6 nM,"Cc1cc(F)c(NS(=O)(=O)c2c[nH]c3c(F)c(Cl)ccc23)nc1F [Compound I-355, 6-chloro-N-(3,6-difluoro-5-methylpyridin-2-yl)-7-fluoro-1H-indole-3-sulfonamide]"
3.16 to 31.6 nM,3.16 to 31.6 nM,"O=S(=O)(Nc1cccc2c1OC(F)(F)O2)c1c[nH]c2c1ccc1cccnc12 [Compound I-66, N-(2,2-difluoro-1,3-benzodioxol-4-yl)-1H-pyrrolo[3,2-h]quinoline-3-sulfonamide]"
> 31.6 nM,> 31.6 nM,"O=S(=O)(Nc1ccc(F)cc1F)c1c[nH]c2nc(Br)ccc12 [Compound I-91, 6-bromo-N-(2,4-difluorophenyl)-1H-pyrrolo[2,3-b]pyridine-3-sulfonamide]"
3.16 to 31.6 nM,3.16 to 31.6 nM,"COc1ccc2c(S(=O)(=O)Nc3ccc(Br)cc3F)c[nH]c2c1 [Compound I-293, N-(4-bromo-2-fluorophenyl)-6-methoxy-1H-indole-3-sulfonamide]"
> 31.6 nM,> 31.6 nM,Cc1ccnc(NS(=O)(=O)c2c[nH]c3cc(Cl)ccc23)c1 [Compound I-59]
